In data set [1] the test system is AMBRA1-DIC interaction. The data set is described as follows: Co-immunoprecipitation of AMBRA1 with dynein intermediate chain (DIC) after microtubule disruption. Type of data set: cell-based, human. To be noted: drugs which interfere with microtubule polymerisation. As to the method:
To this end, coimmunoprecipitation experiments were performed in 2F cells, using an antibody specific for the dynein intermediate chain (DIC). It was observed that, under control conditions, AMBRA1 is associated with DIC and is therefore part of the wider dynein machinery (FIG. 2b, third lane). […] DIC immunodepletion experiments confirmed that AMBRA1 is still associated with DLC1 after being released from DIC. On the other hand, only a fraction of DLC1 interacts with AMBRA1, since most DLC1 is still present in the complex, where it plays alternative functions (FIG. 2b).
It was then checked whether disruption of the microtubule network could interfere with the dynamics of AMBRA1 binding to the dynein motor complex.
In immunoprecipitation experiments, cells or tissues were lysed in HEMG buffer (25 mM Hepes pH 8.0, 100 mM NaCl, 25 mM MgCl2, 0.5% Triton X-100, 0.1 mM EDTA 10% glycerol) plus protease and phosphatase inhibitors (Protease inhibitor cocktail plus 1mM Sodium Fluoride, 1 mM Sodium orthovanadate, 1 mM Sodium molibdate; Sigma-Aldrich). […]

The target of data set [2] is MyD88 (Homo sapiens, UniProt Q99836). As to conditions: Loiarro et al., J. Leukocyte Biology 2007; cited from earlier work.
Sequence of MyD88 (Q99836 whole entry, species assumed): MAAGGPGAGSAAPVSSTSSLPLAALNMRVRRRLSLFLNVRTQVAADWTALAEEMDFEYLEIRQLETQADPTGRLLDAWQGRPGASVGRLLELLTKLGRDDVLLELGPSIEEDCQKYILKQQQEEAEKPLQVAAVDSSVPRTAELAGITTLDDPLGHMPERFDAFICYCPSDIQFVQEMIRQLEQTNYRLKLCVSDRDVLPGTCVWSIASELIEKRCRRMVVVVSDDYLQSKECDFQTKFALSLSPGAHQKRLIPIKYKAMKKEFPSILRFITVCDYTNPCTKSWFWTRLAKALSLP
The test system of data set [3] is HEK293 cells. The data set is described as follows: Autophagy induction by peptides in HEK293 cells, Western blot of LC3 and p62. Type of data set: cell-based. To be noted: 1-16 hours; for level of autophagy induced by the treatment: peptide 100-200 μM in culture medium, Western blot of LC3 and p62. From the text: In order to deregulate the AMBRA1-DLC1 interaction, three peptides (SEQ ID NO:1, SEQ ID NO:2 and SEQ ID NO:3) were selected for their likelihood to maintain the α-helix structure. SEQ ID NO:3 and SEQ ID NO:1 presented substitutions of the neutral residues of leucine into lysine, to increase the charge of the peptides (FIG. 5). The three peptides were synthesized in vitro with the addition of 11 arginine residues at the N-terminus and they were covalently conjugated with the FITC fluorochrome. The arginine residues allow an efficient incorporation of the peptides within the cells, whereas the FITC allows visualization of the peptides inside the cells and permit to monitor their stability upon time. Increasing doses of the peptides, respectively SEQ ID NO:3, SEQ ID NO:1 and SEQ ID NO:2 (100-200 μM) were added to the culture medium of HEK293 cells for increasing time (1-16 hours). The level of autophagy induced by the treatment was monitored by Western blot analyses of known markers of this process, such as LC3 and p62. […] Although limited, this effect is somewhat more desirable than stronger effects, because it avoids massive autophagy that would likely results in cell death in vivo.
Proteins were separated on NuPAGE Bis-Tris gel (Invitrogen) and electroblotted onto nitrocellulose (Protran, Schleicher & Schuell) or PVDF (Millipore) membranes. Blots were incubated with primary antibodies in 5% non-fat dry milk in TBS plus 0,1% Tween20 overnight at 4° C. Detection was achieved using horseradish peroxidase-conjugate secondary antibody (Biorad) and visualised with ECL plus (Amersham Bioscience).

Data set [4] deals with AMBRA1 full length (human, wild type) (UniProt Q9C0C7).
Sequence of AMBRA1 full length (human, wild type) (Q9C0C7 other isoform, or with tags, fused parts or gaps): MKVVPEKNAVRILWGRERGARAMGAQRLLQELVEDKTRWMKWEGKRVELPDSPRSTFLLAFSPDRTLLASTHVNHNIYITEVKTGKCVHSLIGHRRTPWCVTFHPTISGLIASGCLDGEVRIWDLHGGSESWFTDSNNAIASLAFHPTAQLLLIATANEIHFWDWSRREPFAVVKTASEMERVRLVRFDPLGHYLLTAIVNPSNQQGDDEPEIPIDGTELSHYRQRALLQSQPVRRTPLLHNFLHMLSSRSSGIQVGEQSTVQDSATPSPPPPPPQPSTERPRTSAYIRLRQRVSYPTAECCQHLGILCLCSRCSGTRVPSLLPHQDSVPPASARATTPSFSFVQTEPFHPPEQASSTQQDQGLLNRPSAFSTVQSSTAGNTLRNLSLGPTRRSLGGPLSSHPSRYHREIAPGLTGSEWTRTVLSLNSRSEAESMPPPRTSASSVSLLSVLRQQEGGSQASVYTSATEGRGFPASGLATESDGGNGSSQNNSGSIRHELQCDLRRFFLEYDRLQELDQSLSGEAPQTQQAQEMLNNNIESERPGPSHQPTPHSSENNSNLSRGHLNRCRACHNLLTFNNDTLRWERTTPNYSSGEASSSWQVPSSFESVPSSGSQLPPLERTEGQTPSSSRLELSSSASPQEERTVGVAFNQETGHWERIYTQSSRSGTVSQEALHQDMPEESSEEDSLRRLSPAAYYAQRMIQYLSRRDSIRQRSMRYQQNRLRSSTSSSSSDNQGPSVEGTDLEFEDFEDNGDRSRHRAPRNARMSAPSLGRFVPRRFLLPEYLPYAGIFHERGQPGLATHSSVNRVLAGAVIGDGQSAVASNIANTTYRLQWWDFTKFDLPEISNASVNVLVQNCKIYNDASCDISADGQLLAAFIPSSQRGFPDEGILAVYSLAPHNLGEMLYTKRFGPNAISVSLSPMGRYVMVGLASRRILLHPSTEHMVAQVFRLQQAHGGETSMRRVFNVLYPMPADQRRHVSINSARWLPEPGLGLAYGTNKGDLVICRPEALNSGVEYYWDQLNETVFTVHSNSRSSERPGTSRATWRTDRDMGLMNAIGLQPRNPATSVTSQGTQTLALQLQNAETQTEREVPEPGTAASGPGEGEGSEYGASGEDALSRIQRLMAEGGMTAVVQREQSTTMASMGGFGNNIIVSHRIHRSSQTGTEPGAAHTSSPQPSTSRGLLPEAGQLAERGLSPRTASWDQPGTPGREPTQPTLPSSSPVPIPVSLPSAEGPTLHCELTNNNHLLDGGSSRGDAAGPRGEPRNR

Consider 6 compounds from patent US20110281804A1, “PEPTIDIC AND PEPTIDOMIMETIC COMPOUNDS FOR REGULATING AUTOPHAGY” (FONDAZIONE SANTA LUCIA, priority 2008, published 2011).

On to `COC(=O)Nc1nc2ccc(C(=O)c3cccs3)cc2[nH]1` [Nocodazole], for which the AMBRA1-DIC interaction result in data set [1] is given as “did not impair”.
Take `NC(=O)[C@H]1CCS[C@@H]2C[C@]3(CCCN3C(=O)Cc3ccc(NC(=O)COc4ccc(Cl)cc4Cl)cc3)C(=O)N12` [ST2825]: the “activity and specificity of inhibition compared with the original MyD88 inhibitory peptide” value in data set [2] is “maintained the same activity and specificity of inhibition”.
Turning to `CC[C@]1(O)C[C@@H]2CN(CCc3c([nH]c4ccccc34)[C@@](C(=O)OC)(c3cc4c(cc3OC)N(C)[C@H]3[C@@](O)(C(=O)OC)[C@H](OC(C)=O)[C@]5(CC)C=CCN6CC[C@]43[C@@H]65)C2)C1` [Vinblastine], in data set [1], the AMBRA1-DIC interaction result is “did not impair”.
Consider “SEQ ID NO:1: Peptide with TQT triplet followed by α-helix residues; leucine residues substituted into lysine to increase charge (SQGTQTKAKQK; listed as Homo sapiens)”, for which, in data set [3] (100-200 μM, Western blot (FIG. 6A)), the p62 protein levels entry is given as “decrease”. For the same compound, the “shorter isoform of LC3” value in data set [3] (100-200 μM, Western blot (data not shown)) is reported as “increase”. For the same compound, in data set [3], the “level of autophagy induced by the treatment” value was “induced an increase in autophagy”.
With “SEQ ID NO:3: Peptide selected to maintain α-helix structure; leucine residues substituted into lysine to increase charge (TQTKAKQKQNAETQTER; listed as Homo sapiens)”, in data set [3], the “level of autophagy induced by the treatment” value is reported as “not so effective at the doses used”.
With “ULK1 wild type, myc-tagged (immunopurified complex)”, the “in vitro kinase assay (32P labelling, autoradiography)” value in data set [4] is listed as “AMBRA1 is phosphorylated by an ULK1 immunopurified complex”.
